Laboratory results as given in US7064204B2, “Pharmaceutically active compounds having a tricyclic pyrazolotriazolopyrimidine ring structure and methods of use” (King Pharmacueticals Reserch and Development, Inc., priority 2002, dated 2006).
Values belong to the compound of their own block, whether it stands above or below them.

Legend:
[1] = molecular target: T1, human A3 adenosine receptors (Homo sapiens, UniProt P0DMS8); test: Displacement of [125I]AB MECA binding at human A3 adenosine receptors expressed in HEK-293 cells; design: expressed in transfected cells; details: Table 2, footnote a: [125I]AB MECA, human A3, HEK-293 cells
T1 sequence (P0DMS8 1-318): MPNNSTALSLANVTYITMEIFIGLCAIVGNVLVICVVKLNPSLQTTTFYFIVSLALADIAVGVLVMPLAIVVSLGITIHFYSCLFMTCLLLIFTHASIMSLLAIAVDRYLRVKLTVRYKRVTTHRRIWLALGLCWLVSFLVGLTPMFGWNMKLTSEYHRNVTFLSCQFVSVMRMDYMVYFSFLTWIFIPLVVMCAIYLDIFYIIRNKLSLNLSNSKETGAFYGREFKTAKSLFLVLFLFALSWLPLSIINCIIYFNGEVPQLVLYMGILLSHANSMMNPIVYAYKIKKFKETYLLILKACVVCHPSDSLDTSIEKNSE

[2] = Water solubility (stated in words); format: physicochemical
[3] = molecular target: T2, human A2A adenosine receptors (Homo sapiens, UniProt P29274); test: Displacement of [3H]SCH58261 binding at human A2A adenosine receptors expressed in CHO cells; details: for Ki: Table 3: [3H]SCH58261, human A2A, CHO cells
T2 construct: expressed in transfected cells; host or cells: CHO cells
T2 sequence (P29274 whole entry): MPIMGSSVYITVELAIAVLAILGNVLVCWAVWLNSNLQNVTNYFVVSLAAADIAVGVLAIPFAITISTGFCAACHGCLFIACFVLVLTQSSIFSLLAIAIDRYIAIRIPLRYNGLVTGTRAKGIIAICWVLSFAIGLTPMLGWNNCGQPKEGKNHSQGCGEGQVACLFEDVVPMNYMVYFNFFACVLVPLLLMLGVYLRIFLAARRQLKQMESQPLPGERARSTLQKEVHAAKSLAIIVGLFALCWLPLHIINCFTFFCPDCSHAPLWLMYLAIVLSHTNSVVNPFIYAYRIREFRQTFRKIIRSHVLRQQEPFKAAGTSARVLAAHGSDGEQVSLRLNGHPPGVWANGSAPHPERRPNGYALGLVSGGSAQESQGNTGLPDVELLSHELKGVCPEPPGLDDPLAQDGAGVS

[4] = molecular target: T3, human A2B adenosine receptors (Homo sapiens, UniProt P29275); test: Displacement of [3H]DPCPX binding at human A2B adenosine receptors expressed in HEK-293 cells; details: Table 3: [3H]DPCPX, HEK-293 cells
T3 construct: expressed in transfected cells; host or cells: HEK-293 cells
T3 sequence (P29275 1-332): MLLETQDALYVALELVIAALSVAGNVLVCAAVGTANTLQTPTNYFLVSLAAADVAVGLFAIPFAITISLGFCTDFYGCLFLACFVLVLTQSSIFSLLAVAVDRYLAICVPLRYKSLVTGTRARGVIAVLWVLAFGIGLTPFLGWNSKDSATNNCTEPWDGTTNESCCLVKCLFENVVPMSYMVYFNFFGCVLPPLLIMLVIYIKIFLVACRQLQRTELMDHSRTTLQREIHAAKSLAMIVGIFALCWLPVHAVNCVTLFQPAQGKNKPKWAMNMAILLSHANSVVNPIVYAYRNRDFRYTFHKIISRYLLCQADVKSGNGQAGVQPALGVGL

[5] = molecular target: T1, human A3 adenosine receptors; test: Displacement of [3H]MRE 3008F20 binding at human A3 adenosine receptors expressed in CHO cells; design: expressed in transfected cells; host or cells: CHO cells; details: for affinity for / interaction with A3 adenosine receptor subtype: discussion of Tables 2 and 3
[6] = molecular target: T4, human A1 adenosine receptors (Homo sapiens, UniProt P30542); test: Displacement of [3H]DPCPX binding at human A1 adenosine receptors expressed in CHO cells; details: Table 3: [3H]DPCPX, human A1, CHO cells
T4 construct: expressed in transfected cells; host or cells: CHO cells
T4 sequence (P30542 1-326): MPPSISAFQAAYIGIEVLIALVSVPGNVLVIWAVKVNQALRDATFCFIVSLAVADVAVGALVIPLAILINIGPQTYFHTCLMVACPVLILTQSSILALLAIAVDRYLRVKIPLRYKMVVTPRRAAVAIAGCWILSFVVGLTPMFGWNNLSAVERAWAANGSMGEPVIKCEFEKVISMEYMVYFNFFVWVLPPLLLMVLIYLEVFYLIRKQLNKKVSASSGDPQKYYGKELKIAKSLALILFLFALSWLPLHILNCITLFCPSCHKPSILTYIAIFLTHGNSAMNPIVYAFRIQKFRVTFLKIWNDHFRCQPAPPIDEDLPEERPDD

Ki [1]: > 1 µM
Compound: Nc1nc2c(cnn2CCc2ccccc2)c2nc(-c3ccco3)nn12 [SCH 58261, 5-amino-7-(2-phenylethyl)-2-(2-furyl)pyrazolo[4,3-e]1,2,4-triazolo[1,5-c]pyrimidine]

water solubility [2]: complete water solubility | Ki [3]: 0.016 µM | Ki ([4]; hydrochloride salt): 0.023 µM | Ki ([5]; Table 3: [3H]MRE 3008F20, human A3, CHO cells): 0.009 µM | selectivity for A3 versus the other adenosine receptor subtypes ([5]; in words): very low | affinity for / interaction with A3 adenosine receptor subtype ([5]; in words): increased | Ki ([6]; hydrochloride salt): 0.1 µM
Compound: CCNc1c2c(nc(NC(=O)Nc3ccc(OC)cc3)n3nc(-c4ccco4)nc23)nn1C.Cl [Compound 55, 1-(9-Ethylamino-2-furan-2-yl-8-methyl-8H-pyrazolo[4,3-e][1,2,4]triazolo[1,5-c]pyrimidin-5-yl)-3-(4-methoxy-phenyl)-urea hydrochloride salt]

water solubility [2]: significant water solubility
Compound: CSc1c2c(nc(N)n3nc(-c4ccc(CN5CCN(C)CC5)o4)nc23)nn1C [Compound 56]

Ki [3]: 0.05 µM | affinity for A2A adenosine receptor subtype ([3]; in words, discussion of Tables 2 and 3): maintains A2A affinity | Ki [4]: 0.19 µM | affinity for / interaction with A3 adenosine receptor subtype ([5]; in words): decreased | Ki [6]: 0.78 µM
Compound: CSc1c2c(nc(NC(=O)Cc3ccc(CC(C)C)cc3)n3nc(-c4ccco4)nc23)nn1C [Compound 48, N-(2-Furan-2-yl-8-methyl-9-methylsulfanyl-8H-pyrazolo[4,3-e][1,2,4]triazolo[1,5-c]pyrimidin-5-yl)-2-(4-isobutyl-phenyl)-acetamide]
